{"source": "patent US11274332B2", "about": "“Methods of administering 3,4-diaminopyridine” (SERB SA, priority 2011, dated 2022)", "tested_on": "dog hepatocytes", "assay": "In vitro metabolism of 14C-amifampridine in dog hepatocytes (Example 2)", "format": "in vitro ADME", "experimental": "The objective of this hepatocyte study was to determine the extent of metabolism, complete metabolic profile and metabolite characterization of amifampridine phosphate in several species with ^14C-amifampridine phosphate for a cross species comparison. The following procedures were used to study the metabolism in rat (Example 1), dog (Example 2), and human hepatocytes (Example 3).\nThe cryopreserved hepatocytes were removed from storage, quickly thawed in a 37° C. water bath for 1 to 2 min, and transferred to a 50 ml tube containing pre-warmed InVitroGRO HT medium (Celsis Inc., Baltimore). The cell suspension was mixed by gentle inversion and the cells were pelleted by centrifugation at 50 to 75×g for 5 min. The supernatant medium was removed and the cells were resuspended in Williams' Medium E. Hepatocyte viability was assessed by using trypan blue exclusion. Hepatocyte density was determined by counting cells with a hemocytometer and the density was adjusted with Williams' Medium E to achieve a final density of 1,000,000 cells/mL. […] The supernatant medium was removed and the cells were resuspended in cold Williams' Medium E. The cell density was then determined using a hemocytometer and the density was adjusted with Williams' Medium E to achieve a final density of 1,000,000 cells/mL. […]", "data": [{"smiles": "Nc1ccncc1N", "note": "[3,4-DAP, 3,4-diaminopyridine]", "values": [{"measurement": "conversion of 3,4-DAP to its metabolite", "result": "No conversion"}]}]}
